Experiment [1] concerns Escherichia coli strain SM101 (pEBZ181) recA-lux SOS reporter gene cells. Nature of the experiment: Microtitre plate assay with SOS reporter gene system (recA-lux bioluminescence stimulated by ciprofloxacin). The format is cell-based. The note with it: for Rel. bioluminescence: microtitre plate, 28° C., 60 min, relative to CTAB-free reference. The source says:
(§1) The reporter gene cell consists of the Escherichia coli strain SM101 which harbours the recombinant plasmid pEBZ181. This plasmid encodes a fusion between the recA promoter from E. coli and the structural genes of the bacterial luminescence of Vibrio fischeri (lux genes C, D, A, B, E and G). To construct the plasmid, the recA promoter-harbouring Bam H I fragment from the plasmid pUA80 [Barbe J, Fernandez de Henestrosa A R, Calero S, and Gilbert I (1991) Chromogenic Method for rapid isolation of recA-like mutants of Gram-negative bacteria. J. Bacteriol. 173: 404-406] was cloned into a derivative of the vector pEBZ112 [Peitzsch N, Eberz G, and Nies D (1998) Alcaligenes eutrophus as a bacterial chromate sensor. Appl. Environm. Microbiol. 64: 453-458] which harbours, inserted into the Nco I site of the luxG gene, a lacZ cassette [Becker A (1993) Analyse der Succinoglycan-Biosyntheseregion von Rhizobium meliloti 2011: Untersuchungen zur Identifizierung des bakteriellen Infektionssignals in der Symbiose mit Luzeme, doctoral thesis, Bielefeld University, Germany]. Plasmid pEBZ181 was transformed by standard methods [Sambrook J, Fritsch E F, and Maniatis T (1989) Molecular cloning: A laboratory manual (2nd edn), Cold Spring Harbor Laboratory Press] into the Escherichia coli strain SMIOI (obtained from E. coli Genetic Stock Center, Yale University, New Haven, USA) and employed for bioimaging experiments.
(§2) Treatment of bacteria with antibacterial agents such as 4-quinolonecarboxylic acids leads to induction of the so-called SOS repair mechanism [Walker C G (1984) Mutagenesis and inducible responses to deoxyribonucleic acid damage in Escherichia coli. Microbiol. Rev. 48: 60-93; Phillips I, Culabras E, Moreno F, and Baquero F (1987) Induction of the SOS response by new 4-quinolones. J. Antimicrob. Chemother. 20: 631-638; Piddock L J V, and Wise R (1987) Induction of the SOS response in Escherichia coli by 4-quinone antimicrobial agents. FEMS Microbiol. Lett. 41: 289-294]. The RecA protein is a main regulator of this repair mechanism, and SOS induction leads to enhanced expression of the recA gene. Measurement of the synthesis of the RecA protein [Little J W and Mount D W (1982) The SOS regulatory system of Escherichia coli. Cell 29: 11-22; Witkin E M (1976) Ultraviolet mutagenesis and inducible DNA repair in Escherichia coli. Bacteriol. Rev. 40: 864-907] or of recA-reporter gene fusions [Nunoshiba T and Nishioka H (1991) Rec-lac test for detecting SOS-inducing activity of environmental genotoxic substances. Mutation Res. 254:71-77] is one possible way of measuring SOS induction and consequently the effect of 4-quinolonecarboxylic acids. Since the strain E. coli SM101 (pEBZ181) harbours a plasmid with a recA-lux reporter gene fusion, it is suitable for detecting 4-quinolonecarboxylic acids or other SOS-inducing compounds. The presence of such compounds leads to enhanced expression of the luciferase gene and thus to a stimulation of bioluminescence.
In both assay formats ciprofloxacin was used for effect-specific induction of the SOS response. The bioluminescence stimulated in the reporter gene system used in this case provided the read-out signal which was recorded by video imaging. In order to test the tolerance of the two bioassay formats to interfering substances, assays were carried out in the presence of cytotoxic cetyltrimethylammonium bromide (CTAB).
Five assay solutions were made up in a 96-well microtitre plate (Dynatech Microlite). A volume of 200 μl contained in each case:
16 μl of reporter gene cell suspension (OD: 1.2 at 660 nm) in 2% LB medium
90 μl of solution of substances 1.-5. in water
1. 25 ng of ciprofloxacin hydrochloride monohydrate
2. 25 ng of ciprofloxacin hydrochloride monohydrate+50 ng of CTAB
3. 25 ng of ciprofloxacin hydrochloride monohydrate+100 ng of CTAB
4. 25 ng of ciprofloxacin hydrochloride monohydrate+200 ng of CTAB
5. 25 ng of ciprofloxacin hydrochloride monohydrate+500 ng of CTAB […]
(A reporter such as luciferase makes a cellular process visible.)

Experiment [2] has the same test system. Nature of the experiment: Activity measurement with the diffusion-controlling sensor layer (SOS reporter gene cells in agarose on TLC plate). Type of experiment: cell-based. The note with it: for Rel. bioluminescence: sensor layer 2 mm, 28° C., 60 min.
Excerpt: as §1
as §2, with “Mutation Res. 254:71-77] is one possible way of measuring SOS induction and consequently the effect of 4-quinolonecarboxylic acids. Since the strain E. coli SM101 (pEBZ181) harbours a plasmid with a recA-lux reporter gene fusion, it is suitable for detecting 4-quinolonecarboxylic acids or other SOS-inducing compounds. The presence of such compounds leads to enhanced expression of the luciferase gene and thus to a stimulation of bioluminescence.” left out
In both assay formats ciprofloxacin was used for effect-specific induction of the SOS response. The bioluminescence stimulated in the reporter gene system used in this case provided the read-out signal which was recorded by video imaging. […]

Each structure is given as a SMILES string.

Turning to `CCCCCCCCCCCCCCCC[N+](C)(C)C.[Br-]` [CTAB, cetyltrimethylammonium bromide], the Rel. bioluminescence in experiment [1] (CTAB 50 ng/200 μl with 25 ng ciprofloxacin hydrochloride monohydrate) was 0.88; in experiment [1] (CTAB 100 ng/200 μl with 25 ng ciprofloxacin hydrochloride monohydrate), 0.87; in experiment [1] (CTAB 200 ng/200 μl with 25 ng ciprofloxacin hydrochloride monohydrate), 0.78; in experiment [1] (CTAB 500 ng/200 μl with 25 ng ciprofloxacin hydrochloride monohydrate), 0.44; in experiment [2] (CTAB 250 ng/200 μl (calculated analogous concentration) with 10 ng ciprofloxacin hydrochloride monohydrate) it was 1.002; in experiment [2] (CTAB 500 ng/200 μl (calculated analogous concentration) with 10 ng ciprofloxacin hydrochloride monohydrate), 1.023. For the same molecule, the reduction in bioluminescence entry in experiment [1] (microtitre plate format, CTAB concentrations up to 500 ng/200 μl, ciprofloxacin-stimulated) is “more than 50%”. Besides, in experiment [1] (microtitre plate format, addition of CTAB, ciprofloxacin-stimulated), the “fall in the bioluminescence (of the initial value)” value is listed as “about 40%”. Further, in experiment [2] (sensor layer format, ciprofloxacin-stimulated bioluminescence), the “bioactivity measurement on addition of CTAB” value is “not impaired”. Moreover, the “relative bioluminescence as a measure of the selective stimulation by ciprofloxacin” value in experiment [2] (sensor layer format, up to CTAB concentrations of 500 ng/200 μl) was “remained constant”.

These data come from US20070292912A1, “Diffusion-controlling sensor layer” (priority 1999, published 2007).
